Data as given in PMC12108757, “Discovery and Characterisation of Novel Poly-Histidine-Poly-Glycine Peptides as Matrix Metalloproteinase Inhibitors” (Biomolecules, 2025).

How the values were obtained:
[1] = Circular dichroism (CD) analysis; assay type: physicochemical; settings: 0.2 mM, 20 °C, CDNN software
Experimental: The synthetic pHpGs (0.2 mM) were analysed by CD spectroscopy to identify the secondary microstructure, respectively. Settings: scanning range of 180–260 nm, speed of 50 nm·min^−1, bandwidth of 1 nm, and a response time of 0.5 s. Secondary structure proportions (α-helices, β-sheets, β-turns, and random coils) were analysed via CDNN v2.1 software (Applied Photophysics Ltd., Leatherhead, UK).

[2] = UV-Vis spectroscopy of pHpGs and zinc–pHpG complexes; assay type: physicochemical; settings: 0.1 mM, 200–300 nm, room temperature; for UV–visible wavelength, zinc–pHpG complex: Zn^2+ complex; for UV–visible wavelength, peptide before zinc binding: peptide alone
Experimental: Ultraviolet–visible (UV–Vis) spectrum of pHpGs and zinc–pHpG complexes (0.1 mM) were recorded using a Shimadzu UV-2450 spectrophotometer (Shimadzu Corporation, Kyoto, Japan) in the wavelength range of 200–300 nm at room temperature.

human MMP-1 = test: MMP-1 proteinase inhibition assay (time-dependent β-casein degradation, SDS-PAGE); assay type: biochemical; settings: for catalytic suppression of MMP-1: proteinase inhibition assay, summary in discussion; for inhibition of MMP-1 activity in hydrolysing β-casein: 0–24 h, MMP-1 pre-incubated with peptide (1:25 molar ratio), sodium phosphate buffer pH 6.5, 37 °C, 12% SDS-PAGE, Coomassie
Experimental: Proteolytic activity was assessed using β-casein (0.08 mM) as a substrate in a time-course assay (0–24 h). Enzymatic reactions were initiated by pre-incubating human MMP-1 with synthetic pHpG peptides (1:25 molar ratio) in a sodium phosphate buffer (pH 6.5) at 37 °C for 30 min. The recombinant human MMP-1 protein (rhMMP-1; ≥95% purity), obtained from MedChemExpress (Monmouth Junction, NJ, USA), was expressed in HEK293 cells as an unglycosylated form with a determined molecular weight of 49–61 kDa. The latent proenzyme requires activation via incubation with 1 mM aminophenylmercuric acetate at 37 °C for 2 h to generate the catalytically active form. Reactions were quenched with 5 mM EDTA at designated intervals, followed by electrophoretic separation on 12% SDS-PAGE and Coomassie staining. The negative control was β-casein in the absence of enzymatic catalysis, while water served as a system blank to monitor background interference.

HUVECs [3] = test: Tube formation assay (Matrigel); assay type: cell-based, human; settings: hVEGF165-stimulated, 1% FBS, 8 h, 37 °C, 3.125–25 μM
Experimental: Matrigel™ Basement Membrane Matrix (BD Bioscience, Franklin Lakes, NJ, USA) was added to a 96-well plate to a total volume of 60 μL per well and polymerised at 37 °C with 5% CO2 for 30 min to form a gel layer. HUVECs (2 × 10^4 cells/well) in the medium with 1% FBS were seeded. Different concentrations of pHpG-H7 peptide (3.125 μM, 6.25 μM, 12.5 μM, 25 μM) were added to each well and incubated for 8 h (37 °C, 5% CO2). Results were detected by phase-contrast microscope (Olympus, Tokyo, Japan) and photographed. At least three representative fields from each well were selected to count the number of branching points.

HUVECs [4] = test: Scratch wound healing assay; assay type: cell-based, human; settings: hVEGF165 25 ng/mL stimulated, serum-free, 12 h, 37 °C; across all groups 3.125–25 μM
Experimental: Human umbilical vein endothelial cells (HUVECs) were procured from the Shanghai Institute of Biochemistry and Cell Biology (Chinese Academy of Sciences, China). For the scratch wound healing assay, HUVECs were seeded in 24-well plates at a density of 1.2 × 10⁵ cells/well and cultured to form confluent monolayers. A linear wound was created by scraping with a sterile pipette tip. Serum-free Dulbecco’s modified Eagle medium containing 25 ng/mL of human vascular endothelial growth factor 165 (hVEGF165) was supplied, followed by the addition of either the pHpG-H7 peptide (3.125 μM, 6.25 μM, 12.5 μM, 25 μM) or water as a control. Cells were incubated for 12 h (37 °C, 5% CO2), and images were captured at 0 h (initial wound area) and 12 h. Wound healing was quantified using ImageJ 1.53t software, with a migration rate calculated as: Mobility (%) = (initial wound area–12 h residual area)/initial wound area × 100%.

HUVECs [5] = test: Trans-well migration assay; assay type: cell-based, human; settings: 10% FBS, hVEGF165 25 ng/mL, 24 h, 37 °C; 3.125–25 μM
Experimental: HUVECs (2 × 10^5 cells) were seeded in the upper chamber of a modified Boyden chamber system (BD Sciences, Milpitas, CA, USA). The lower chamber contained medium with 10% FBS, hVEGF165 (25 ng/mL), pHpG-H7 peptide (3.125 μM, 6.25 μM, 12.5 μM, 25 μM), or water. After 24 h incubation (37 °C, 5% CO2), migrated cells on the lower membrane surface were fixed, stained with Crystal Violet, and imaged. Cell migration was quantified using ImageJ software.

metalloproteinase = settings: ref [10]; cited from earlier work
Experimental: Time-dependent β-casein degradation mediated by MMP-1 was analysed. In the absence of pHpG peptides, β-casein was progressively degraded and fully hydrolysed within 24 h (Figure 4A).

[6] = test system: venom-induced haemorrhage; settings: ref [10]; cited from earlier work
Source text: (§1) In the preceding investigation, we reported the presence of snake venom metalloproteinase in A. squamigera’s venom, which belongs to the Pep_M12B_propeptide family. […] This hypothesis is strongly supported by findings ...

SVMP = settings: ref [10]; cited from earlier work
Source text: as §1

Question: Which “Unorderd (random coil)” value [1] does the source give for EDDHHHHHGVGGGGGGGGGG [pHpG-H5] here?
Answer: 29.2%

Question: And the α-Helix [1]?
Answer: 12.1%

Question: And the β-Strand [1]?
Answer: 40.6%

Question: And the β-Turn [1]?
Answer: 21.6%

Question: What about the “UV–visible wavelength, zinc–pHpG complex” value [2] of the same sequence?
Answer: 216 nm

Question: What about the “UV–visible wavelength, peptide before zinc binding” value [2] of the same sequence?
Answer: 214 nm

Question: And the “catalytic suppression of MMP-1” value (human MMP-1)?
Answer: potent catalytic suppression

Question: What about the “inhibition of MMP-1 activity in hydrolysing β-casein” value (human MMP-1; β-casein 0.08 mM, 30 min) of the same sequence?
Answer: significantly inhibited

Question: What does the source list for EDDHHHHHHHGVGGGGGGGGGG [pHpG-H7]?
Answer: anti-angiogenesis effect (tube formation) (HUVECs [3]): anti-angiogenesis effects in a dose-dependent manner; Unorderd (random coil) [1]: 46.4%; α-Helix [1]: 6.2%; β-Strand [1]: 13.6%; β-Turn [1]: 29.4%; UV–visible wavelength, zinc–pHpG complex [2]: 215 nm; UV–visible wavelength, peptide before zinc binding [2]: 212 nm; wound closure capability of HUVECs (HUVECs [4]): significantly impaired; HUVECs migration (HUVECs [5]): inhibited by pHpG-H7 in a dose-dependent manner; relative inhibitory effect on MMP-1 among the pHpG peptides (human MMP-1; comparison of pHpG-H5, pHpG-H7, pHpG-H9, β-casein, SDS-PAGE): most pronounced inhibitory effect; catalytic suppression of MMP-1 (human MMP-1): potent catalytic suppression; inhibition of MMP-1 activity in hydrolysing β-casein (human MMP-1; β-casein 0.08 mM, 30 min): significantly inhibited; earliest time of suppression of MMP-1 activity (human MMP-1; β-casein 0.08 mM, pre-incubation 1:25 molar ratio, pH 6.5, 37 °C, 30 min, SDS-PAGE, 'as early as'): ≤ 0.5 h

Question: Which “Unorderd (random coil)” value [1] does the source give for “EDDHHHHHHHHHGVGGGGGGGGGG [pHpG-H9, Atheris pHpG-1 is equivalent to pHpG-H9, reference compound]” here?
Answer: 47.5%

Question: And the α-Helix [1]?
Answer: 6.3%

Question: And the β-Strand [1]?
Answer: 11.7%

Question: What about the β-Turn [1] of the same sequence?
Answer: 30.7%

Question: And the “UV–visible wavelength, zinc–pHpG complex” value [2]?
Answer: 218 nm

Question: And the “UV–visible wavelength, peptide before zinc binding” value [2]?
Answer: 210 nm

Question: What about the metalloproteinase-mediated casein hydrolysis (metalloproteinase) of the same sequence?
Answer: inhibits

Question: And the venom-induced haemorrhage [6]?
Answer: alleviation of venom-induced haemorrhage

Question: And the SVMP activity (SVMP)?
Answer: inhibition of SVMP activity

Question: And the “catalytic suppression of MMP-1” value (human MMP-1)?
Answer: potent catalytic suppression

Question: And the “inhibition of MMP-1 activity in hydrolysing β-casein” value (human MMP-1; β-casein 0.08 mM, 30 min)?
Answer: significantly inhibited
